{"source": "patent US11254671B2", "about": "“Chemical compounds” (GLAXOSMITHKLINE INTELLECTUAL PROPERTY DEVELOPMENT LIMITED, priority 2017, dated 2022)"}
{"test_system": "type I collagen deposition in primary lung fibroblasts", "assay": "Highthroughput type I collagen deposition (scar-in-a-jar) high content screening assay", "type": "cell-based", "details": "Homo sapiens, Primary lung fibroblast, 72 h, human pulmonary fibroblasts, TGF-β 1 ng/ml, Ficoll crowding, mean of multiple experiments, read-out: mean pIC50, inhibition of type I collagen deposition (converted)", "method": "Example 53 Highthroughput Type I Collagen Deposition (Scar-in-a-Jar) High Content Screening Assay\nHighthroughput, cellular type I collagen deposition was measured by adapting a published method; scar-in-a-jar (Chen et al., 2009) to primary lung fibroblasts derived from human tissue and combining with high content analysis to permit fluorescent quantification of collagen deposited in the extracellular matrix (ECM). The human biological samples were sourced ethically and their research use was in accord with the terms of the informed consents\nTest compounds were dissolved in 100% DMSO to give 10 mM (stocks) and further diluted to give half log dilutions to generate an 11 point concentration response curve. 1 ul was transferred to 384-well plates (Greiner Group, Kremsmunster, Austria, Catalogue No Greine 781280r).\nHuman pulmonary fibroblasts were maintained in DMEM media (Gibco, Catalogue No 21969) supplemented with 4 mM L-glutamine (Gibco Catalogue No 25030-024) and 10% heat inactivated FBS (Gibco, Catalogue No 10099-141) at 37° C. in 10% CO2. Cells were harvested and resuspended at 4×10^6 cells/ml in a T175 cell culture flask (BD Falcom, Catalogue No: 353112) containing 50 mL of culture media. After 4 days 37° C. in 10% CO2, cells were harvested and seeded at 4000 cells per well (50 μL/well) into 384-well plates (BD Falcon, Catalogue No 353962Greiner) in assay media (0.4% heat inactivated FBS, 4 mM L-glutamine). Plates were sealed with breathable seals (Sigma, Catalogue No. BEM-1). Assay plates were incubated for 72 h at 37° C. in 10% CO2.\nAssay media was supplemented with 112.5 mg/ml Ficoll 70 (Sigma, Catalogue No F2878), 75 mg/ml Ficoll 400 (Sigma, Catalogue No F4375) and 50 μg/ml ascorbic acid (Sigma, Catalogue No A8960). 30 μL assay media were added to 1 μl compound (37 μM compound concentration in 1% DMSO). Diluted compounds (10 μL) were transferred to plates containing cells and incubated for 3 h at 37° C. in 10% CO2. Transforming growth factor (TGF)-β (R&D systems, Catalogue No 100-B/CF) was reconstituted to give 10 μg/mL (stock) and further diluted in assay media containing Ficoll and ascorbic acid (1 in 3333). TGF-β was added to cell plates (1 ng/ml final) and cells incubated for 72 h at 37° C. in 10% CO2.\nMedia was aspirated from cells and 30 μL/well 100% ice-cold methanol added and incubated at RT for 5 min to fix cells. Methanol was aspirated and cells washed with PBS (3×). To block and permeabilise, cells were incubated with PBS containing 1% BSA and 0.1% Triton X 100 for 20 min, followed by PBS wash (3×). Cells were incubated with mouse anti human type I collagen monoclonal antibody (Sigma, Catalogue No C2456) diluted 1:1000 in PBS for 24 h at 4° C. Cells were washed with PBS containing 0.1% Tween-20 (3×) and incubated with secondary alexa fluor 488 goat-anti-mouse antibody (Invitrogen, Catalogue No A11001, 1 in 500 in PBS) and Hoechst 33342 (Sigma, Catalogue No H21492), 1 in 1000 in PBS) for 1 h at RT, prior to washing with PBS containing 0.1% Tween (×4).\nType I collagen immunoreactivity was detected using the INCell 2000 Analyzer (GE Healthcare, INcell 2000) set to excitation and emission wavelengths for DAPI and FITC with laser focus and exposure adjusted to appropriate levels. Images were imported and analysed using Columbus software (Perkin Elmer) and computational algorithms to quantify “total collagen area” and “cell count”.\nData analysis was performed by determining % inhibition values for test compounds relative to the minimum (media only) and maximum responses (TGF-βstimulation) with non-linear regression analysis to determine IC50 values for test compounds.", "units": {"IC50": "nM"}}
{"smiles": "CNCc1cc2nc(-c3cc(CS(C)(=O)=O)cc(N4CCOC[C@@H]4C)n3)ccc2[nH]1", "note": "[Example 6, (S)—N-methyl-1-(5-(6-(3-methylmorpholino)-4-((methylsulfonyl)methyl)pyridin-2-yl)-1H-pyrrolo[3,2-b]pyridin-2-yl)methanamine]", "IC50": "39.8 to 1000"}
{"smiles": "CC[C@H]1COCCN1c1cc(C(C)(C)S(C)(=O)=O)cc(-c2ccc3[nH]c(CN)cc3n2)n1", "note": "[Example 21, 1-(5-{6-[(3S)-3-ethylmorpholin-4-yl]-4-(2-methanesulfonylpropan-2-yl)pyridin-2-yl}-1H-pyrrolo[3,2-b]pyridin-2-yl)methanamine]", "IC50": "39.8 to 1000"}
{"smiles": "CC[C@H]1COCCN1c1cc(C(C)(C)S(C)(=O)=O)cc(-c2ccc3[nH]c(CO)cc3n2)n1", "note": "[Example 32]", "IC50": "39.8 to 1000"}
{"smiles": "CC[C@H]1COCCN1c1cc(C2(S(C)(=O)=O)CC2)cc(-c2ccc3[nH]c(CNC)cc3n2)n1", "note": "[Example 19, [(5-{6-[(3S)-3-ethylmorpholin-4-yl]-4-(1-methanesulfonylcyclopropyl)pyridin-2-yl}-1H-pyrrolo[3,2-b]pyridin-2-yl)methyl](methyl)amine]", "IC50": "39.8 to 1000"}
{"smiles": "CNCc1cc2nc(-c3cc(C(C)(C)S(C)(=O)=O)cc(N4C5CCCC4COC5)n3)ccc2[nH]1", "note": "[Example 5, 1-(5-(6-(3-oxa-9-azabicyclo[3.3.1]nonan-9-yl)-4-(2-(methylsulfonyl)propan-2-yl)pyridin-2-yl)-1H-pyrrolo[3,2-b]pyridin-2-yl)-N-methylmethanamine]", "IC50": "39.8 to 1000"}
{"smiles": "CCS(=O)(=O)C(C)(C)c1cc(-c2ccc3[nH]c(CNC)cc3n2)nc(N2CCOC[C@@H]2C)c1", "note": "[Example 7, (S)-1-(5-(4-(2-(ethylsulfonyl)propan-2-yl)-6-(3-methylmorpholino)pyridin-2-yl)-1H-pyrrolo[3,2-b]pyridin-2-yl)-N-methylmethanamine]", "IC50": "39.8 to 1000"}
{"smiles": "CC[C@H]1COCCN1c1cc(C2(S(=O)(=O)N(C)C)CCOCC2)cc(-c2ccc3[nH]c(CNC)cc3n2)n1", "note": "[Example 31, 4-{2-[(3S)-3-ethylmorpholin-4-yl]-6-{2-[(methylamino)methyl]-1H-pyrrolo[3,2-b]pyridin-5-yl}pyridin-4-yl}-N,N-dimethyloxane-4-sulfonamide]", "IC50": "39.8 to 100"}
{"smiles": "CC[C@H]1COCCN1c1cc(CS(=O)(=O)C2CC2)cc(-c2ccc3[nH]c(CNC)cc3n2)n1", "note": "[Example 10, (S)-1-(5-(4-((cyclopropylsulfonyl)methyl)-6-(3-ethylmorpholino)pyridin-2-yl)-1H-pyrrolo[3,2-b]pyridin-2-yl)-N-methylmethanamine]", "IC50": "39.8 to 1000"}
{"smiles": "CC[C@H]1COCCN1c1cc(C2(S(C)(=O)=O)CCOCC2)cc(-c2ccc3[nH]c(CO)cc3n2)n1", "note": "[Example 33, (5-{6-[(3S)-3-ethylmorpholin-4-yl]-4-(4-methanesulfonyloxan-4-yl)pyridin-2-yl}-1H-pyrrolo[3,2-b]pyridin-2-yl)methanol]", "IC50": "39.8 to 1000"}
{"smiles": "CNCc1cc2nc(-c3cc(CS(C)(=O)=O)cc(N4CC5CCC(C4)O5)n3)ccc2[nH]1", "note": "[Example 25, ({5-[4-(methanesulfonylmethyl)-6-{8-oxa-3-azabicyclo[3.2.1]octan-3-yl}pyridin-2-yl]-1H-pyrrolo[3,2-b]pyridin-2-yl}methyl)(methyl)amine]", "IC50": "39.8 to 1000"}
{"smiles": "CNCc1cc2nc(-c3cc(C(C)(C)S(C)(=O)=O)cc(N4[C@@H]5CC[C@H]4COC5)n3)ccc2[nH]1", "note": "[Example 3, 1-(5-(6-((1R,5S)-3-oxa-8-azabicyclo[3.2.1]octan-8-yl)-4-(2-(methylsulfonyl)propan-2-yl)pyridin-2-yl)-1H-pyrrolo[3,2-b]pyridin-2-yl)-N-methylmethanamine]", "IC50": "39.8 to 1000"}
{"smiles": "CNCc1cc2nc(-c3cc(C(C)(C)S(C)(=O)=O)cc(N4CCOC[C@@H]4C)n3)ccc2[nH]1", "note": "[Example 2, (S)—N-methyl-1-(5-(6-(3-methylmorpholino)-4-(2-(methylsulfonyl)propan-2-yl)pyridin-2-yl)-1H-pyrrolo[3,2-b]pyridin-2-yl)methanamine]", "IC50": "39.8 to 1000"}
{"smiles": "CNCc1cc2nc(-c3cc(C4(S(C)(=O)=O)CCOCC4)cc(N4C5CCC4COC5)n3)ccc2[nH]1", "note": "[Example 40, ({5-[4-(4-methanesulfonyloxan-4-yl)-6-{3-oxa-8-azabicyclo[3.2.1]octan-8-yl}pyridin-2-yl]-1H-pyrrolo[3,2-b]pyridin-2-yl}methyl)(methyl)amine]", "IC50": "39.8 to 1000"}
{"smiles": "CC[C@H]1COCCN1c1cc(CS(C)(=O)=O)cc(-c2ccc3[nH]c(CO)cc3n2)n1", "note": "[Example 34, (5-{6-[(3S)-3-ethylmorpholin-4-yl]-4-(methanesulfonylmethyl)pyridin-2-yl}-1H-pyrrolo[3,2-b]pyridin-2-yl)methanol]", "IC50": "39.8 to 1000"}
{"smiles": "CNCc1cc2nc(-c3cc(C(F)(F)S(C)(=O)=O)cc(N4CCOC[C@@H]4C)n3)ccc2[nH]1", "note": "[Example 12, (S)-1-(5-(4-(difluoro(methylsulfonyl)methyl)-6-(3-methylmorpholino)pyridin-2-yl)-1H-pyrrolo[3,2-b]pyridin-2-yl)-N-methylmethanamine]", "IC50": "39.8 to 1000"}
{"smiles": "CNCc1cc2nc(-c3cc(C4(S(C)(=O)=O)CC4)cc(N4CCOC[C@@H]4C)n3)ccc2[nH]1", "note": "[Example 20, ({5-[4-(1-methanesulfonylcyclopropyl)-6-[(3S)-3-methylmorpholin-4-yl]pyridin-2-yl]-1H-pyrrolo[3,2-b]pyridin-2-yl}methyl)(methyl)amine]", "IC50": "39.8 to 1000"}
{"smiles": "CC[C@H]1COCCN1c1cc(C2(S(C)(=O)=O)CCOCC2)cc(-c2ccc3[nH]c(CN)cc3n2)n1", "note": "[Example 23, 1-(5-{6-[(3S)-3-ethylmorpholin-4-yl]-4-(4-methanesulfonyloxan-4-yl)pyridin-2-yl}-1H-pyrrolo[3,2-b]pyridin-2-yl)methanamine]", "IC50": "39.8 to 1000"}
{"smiles": "CNCc1cc2nc(-c3cc(C(C)(C)S(C)(=O)=O)cc(N4CC5CCC(C4)O5)n3)ccc2[nH]1", "note": "[Example 4, 1-(5-(6-(8-oxa-3-azabicyclo[3.2.1]octan-3-yl)-4-(2-(methylsulfonyl)propan-2-yl)pyridin-2-yl)-1H-pyrrolo[3,2-b]pyridin-2-yl)-N-methylmethanamine]", "IC50": "39.8 to 1000"}
{"smiles": "CC[C@H]1COCCN1c1cc(C(C)(C)S(=O)(=O)C2CC2)cc(-c2ccc3[nH]c(CNC)cc3n2)n1", "note": "[Example 9, (S)-1-(5-(4-(2-(cyclopropylsulfonyl)propan-2-yl)-6-(3-ethylmorpholino)pyridin-2-yl)-1H-pyrrolo[3,2-b]pyridin-2-yl)-N-methylmethanamine]", "IC50": "39.8 to 100"}
{"smiles": "CC[C@H]1COCCN1c1cc(CS(=O)(=O)N(C)C)cc(-c2ccc3[nH]c(CNC)cc3n2)n1", "note": "[Example 17, (S)-1-(2-(3-ethylmorpholino)-6-(2-((methylamino)methyl)-1H-pyrrolo[3,2-b]pyridin-5-yl)pyridin-4-yl)-N,N-dimethylmethanesulfonamide]", "IC50": "39.8 to 1000"}
{"smiles": "CC[C@H]1COCCN1c1cc(C2(S(=O)(=O)C3CC3)CC2)cc(-c2ccc3[nH]c(CNC)cc3n2)n1", "note": "[Example 11, (S)-1-(5-(4-(1-(cyclopropylsulfonyl)cyclopropyl)-6-(3-ethylmorpholino)pyridin-2-yl)-1H-pyrrolo[3,2-b]pyridin-2-yl)-N-methylmethanamine]", "IC50": "39.8 to 100"}
{"smiles": "CC[C@H]1COCCN1c1cc(CS(C)(=O)=O)cc(-c2ccc3[nH]c(CNC)cc3n2)n1", "note": "[Example 13, (S)-1-(5-(6-(3-ethylmorpholino)-4-((methylsulfonyl)methyl)pyridin-2-yl)-1H-pyrrolo[3,2-b]pyridin-2-yl)-N-methylmethanamine]", "IC50": "39.8 to 1000"}
